# Assay results: paper PMC10046961, “High-Throughput Screening Assay for Detecting Drug-Induced Changes in Synchronized Neuronal Oscillations and Potential Seizure Risk Based on Ca^2+ Fluorescence Measurements in Human Induced Pluripotent Stem Cell (hiPSC)-Derived Neuronal 2D and 3D Cultures” (Cells, 2023)
# Read-outs that look alike come from different tables or passages of the source. Marks after values point to notes of the source that are not given here.
# What was measured:
# [1] = tested on: hiPSC-derived neurons co-cultured with human primary astrocytes in 2D; test: Ca2+ transient oscillation assay (FDSS), 2D co-culture; format: cell-based; conditions: for activation at 0.37 µM / activation at 1.11 µM / activation at 3.33 µM / activation at 10 µM / activation at 3.7 µM / activation at 11.11 µM / activation at 33.33 µM / activation at 100 µM: Homo sapiens, 1 h, 60 min
# Summary of the method: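 hiPSC-derived excitatory neurons (CW50065, Quick-Neuron EX-SeV) co-cultured with human primary astrocytes at 4:1 (10,000:2500 cells per well). Cal-520-loaded cells in HBSS with 2 mM CaCl2 and 10 mM HEPES were pretreated with 0.04% DMSO.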
# [2] = tested on: hiPSC-derived neurons co-cultured with human primary astrocytes in 3D; test: Ca2+ transient oscillation assay (FDSS), 3D spheroids; format: cell-based; conditions: 60 min
# Summary of the method: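 Fura-2 fluorescence was read twice for 20 min each: a baseline 10 min after 0.04% DMSO, and again 60 min after compound addition at nominal final concentration. The 3D co-cultures (1:1 hiPSC neurons from a donor and human astrocytes, 8000 each) matured 5 weeks in BrainPhys medium after a 1-week differentiation.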
# [3] = ref PharmaPendium, cited from earlier work
# [4] = read-out: Area under the curve - 2D Mean
# [5] = read-out: Peak amplitude - 2D Mean
# [6] = read-out: Peak-to-peak interval - 2D Mean
# [7] = Table 1, peak plasma concentration in men, free therapeutic Cmax
# [8] = Table 2, highest plasma concentration in humans after the therapeutic dose
structure (smiles),measurement,setting,value
"CCN(CC)CCCC(C)Nc1c2ccc(Cl)cc2nc2ccc(OC)cc12 (stereo not shown) [Quinacrine, quinacrine]",activation at 0.37 µM,[1]; [4],5.3%
same,activation at 0.37 µM,[1]; read-out: Peak Number—2D Mean,-2.7%
same,activation at 0.37 µM,[1]; [5],1.8%
same,activation at 0.37 µM,[1]; read-out: Peak width - 2D Mean,2.8%
same,activation at 0.37 µM,[1]; [6],7%
same,activation at 1.11 µM,[1]; [4],11.2%
same,activation at 1.11 µM,[1]; read-out: Peak Number—2D Mean,-2.8%
same,activation at 1.11 µM,[1]; [5],1.2%
same,activation at 1.11 µM,[1]; read-out: Peak width - 2D Mean,10.7%
same,activation at 1.11 µM,[1]; [6],-4%
same,activation at 3.33 µM,[1]; [4],-13.8%
same,activation at 3.33 µM,[1]; read-out: Peak Number—2D Mean,-11%
same,activation at 3.33 µM,[1]; [5],-7.8%
same,activation at 3.33 µM,[1]; read-out: Peak width - 2D Mean,-12.8%
same,activation at 3.33 µM,[1]; [6],40.2%
same,activation at 10 µM,[1]; [4],-84.7%
same,activation at 10 µM,[1]; read-out: Peak Number—2D Mean,-92.2%
same,activation at 10 µM,[1]; [5],-78%
same,activation at 10 µM,[1]; read-out: Peak width - 2D Mean,-84.3%
same,activation at 10 µM,[1]; [6],-18.2%
same,Area under the curve - 3D Mean,[2]; 0.37 µM,123.5 % change from baseline
same,Peak Number—3D Mean,[2]; 0.37 µM,3.2 % change from baseline
same,Peak amplitude - 3D Mean,[2]; 0.37 µM,113.4 % change from baseline
same,Peak width - 3D Mean,[2]; 0.37 µM,−1.8 % change from baseline
same,Peak-to-peak interval - 3D Mean,[2]; 0.37 µM,−0.7 % change from baseline
same,Area under the curve - 3D Mean,[2]; 1.11 µM,149.1 % change from baseline
same,Peak Number—3D Mean,[2]; 1.11 µM,0.4 % change from baseline
same,Peak amplitude - 3D Mean,[2]; 1.11 µM,128.3 % change from baseline
same,Peak width - 3D Mean,[2]; 1.11 µM,4.2 % change from baseline
same,Peak-to-peak interval - 3D Mean,[2]; 1.11 µM,6.2 % change from baseline
same,Area under the curve - 3D Mean,[2]; 3.33 µM,139.1 % change from baseline
same,Peak Number—3D Mean,[2]; 3.33 µM,14.1 % change from baseline
same,Peak amplitude - 3D Mean,[2]; 3.33 µM,108.9 % change from baseline
same,Peak width - 3D Mean,[2]; 3.33 µM,10.6 % change from baseline
same,Peak-to-peak interval - 3D Mean,[2]; 3.33 µM,−5.5 % change from baseline
same,Area under the curve - 3D Mean,[2]; 10 µM,128.2 % change from baseline
same,Peak Number—3D Mean,[2]; 10 µM,12.5 % change from baseline
same,Peak amplitude - 3D Mean,[2]; 10 µM,108.3 % change from baseline
same,Peak width - 3D Mean,[2]; 10 µM,9.5 % change from baseline
same,Peak-to-peak interval - 3D Mean,[2]; 10 µM,−9.8 % change from baseline
same,Free Cmax,[3]; [7],50 nM
same,Free Cmax,[3]; [8],50 nM
NCCc1c[nH]c2ccc(O)cc12 [Serotonin],"effect on peak number / Ca2+ neuronal oscillations, in words",[1]; 2D format,significantly reduced peak number
same,activation at 3.7 µM,[1]; [4],12.8%
same,activation at 3.7 µM,[1]; read-out: Peak Number—2D Mean,-23.4%
same,activation at 3.7 µM,[1]; [5],-4.9%
same,activation at 3.7 µM,[1]; read-out: Peak width - 2D Mean,17.3%
same,activation at 3.7 µM,[1]; [6],28.4%
same,activation at 11.11 µM,[1]; [4],11.1%
same,activation at 11.11 µM,[1]; read-out: Peak Number—2D Mean,-1.7%
same,activation at 11.11 µM,[1]; [5],-13.7%
same,activation at 11.11 µM,[1]; read-out: Peak width - 2D Mean,18.3%
same,activation at 11.11 µM,[1]; [6],65.8%
same,activation at 33.33 µM,[1]; [4],-8.9%
same,activation at 33.33 µM,[1]; read-out: Peak Number—2D Mean,-43.8%
same,activation at 33.33 µM,[1]; [5],-27.1%
same,activation at 33.33 µM,[1]; read-out: Peak width - 2D Mean,-1.4%
same,activation at 33.33 µM,[1]; [6],36.4%
same,activation at 100 µM,[1]; [4],-2.6%
same,activation at 100 µM,[1]; read-out: Peak Number—2D Mean,-45.8%
same,activation at 100 µM,[1]; [5],-16.6%
same,activation at 100 µM,[1]; read-out: Peak width - 2D Mean,11.4%
same,activation at 100 µM,[1]; [6],55.3%
same,Area under the curve - 3D Mean,[2]; 3.7 µM,−19.4 % change from baseline
same,Peak Number—3D Mean,[2]; 3.7 µM,−70.7 ** % change from baseline
same,Peak amplitude - 3D Mean,[2]; 3.7 µM,−4.3 % change from baseline
same,Peak width - 3D Mean,[2]; 3.7 µM,−54.0 % change from baseline
same,Peak-to-peak interval - 3D Mean,[2]; 3.7 µM,−58.0 % change from baseline
same,Area under the curve - 3D Mean,[2]; 11.11 µM,19.8 % change from baseline
same,Peak Number—3D Mean,[2]; 11.11 µM,−69.1 ** % change from baseline
same,Peak amplitude - 3D Mean,[2]; 11.11 µM,33.7 % change from baseline
same,Peak width - 3D Mean,[2]; 11.11 µM,−31.8 % change from baseline
same,Peak-to-peak interval - 3D Mean,[2]; 11.11 µM,−37.9 % change from baseline
same,Area under the curve - 3D Mean,[2]; 33.33 µM,−21.3 % change from baseline
same,Peak Number—3D Mean,[2]; 33.33 µM,−82.1 ** % change from baseline
same,Peak amplitude - 3D Mean,[2]; 33.33 µM,−3.1 % change from baseline
same,Peak width - 3D Mean,[2]; 33.33 µM,−52.3 % change from baseline
same,Peak-to-peak interval - 3D Mean,[2]; 33.33 µM,29.2 % change from baseline
same,Area under the curve - 3D Mean,[2]; 100 µM,−21.1 % change from baseline
same,Peak Number—3D Mean,[2]; 100 µM,−80.3 ** % change from baseline
same,Peak amplitude - 3D Mean,[2]; 100 µM,−10.3 % change from baseline
same,Peak width - 3D Mean,[2]; 100 µM,−55.4 % change from baseline
same,Peak-to-peak interval - 3D Mean,[2]; 100 µM,−82.0 % change from baseline
same,Free Cmax,[3]; [7],1000 to 2000 nM
same,Free Cmax,[3]; [8],1000 to 2000 nM
